Measurements: US20030073654A1, “Stabilized transient gene expression” (Genespan Corporation, priority 1996, published 2003)
“Also recorded” adds a separate entry of the source.

Experiments:
SW480 cells = test: Transient expression in HPBr hollow fiber perfusion bioreactor (2-week β-galactosidase production); format: cell-based, human; details: relatively high rotational speed
Protocol: A series of four lipofection-based gene transfection experiments were conductive in a high performance hollow fiber perfusion prototype bioreactor device (hereafter referred to as the […] device) in a Genespan prototype incubator instrument. The device consists essentially of a sterile chamber through which two sets of hollow fibers are passed. Culture medium is continuously circulated through one set of fibers, while gases required (e.g., oxygen and carbon dioxide) for cell growth are passed through the second set of fibers. The fibers are composed of a porous material through which gases and nutrients can pass in one direction, while waste molecules produced by the cells growing within the chamber can pass in the other direction. Cells growing in the device may remain in suspension, or may attach to the outer surfaces of both sets of hollow fibers.
A useful feature of the HPBr device is that the cells can be agitated by rotating the chamber through which the tubes pass. […]
Daily samples (about 1.5 ml) of cells and supernatant were taken from the cell compartment of each bioreactor and an equal volume of fresh media was added to replace it. Cell counts and viabilities were determined, and […] were lysed and retained for β-galactosidase determination using the spectrophotometric method described in Example 1. […]

[1] = tested on: SW480 P3 (ATCC #CCL228) human colon carcinoma cells; test: Screening assay for enhancement of transient expression (β-galactosidase gene, liposomal transfection, 6-well plates); format: cell-based
Excerpt: These parameters are called the “X” factor, the “G” factor, and the “K” factor. [formula]
This factor reflects the extent to which a chemical compound added to a transfected cell enhances stabilizes transient expression for the first four days following transfection. […] For example, if expression is doubled in the presence of a compound, […]. […] X may be calculated similarly when the agent in question is a mixture of more than one chemical compound.
Cumulative protein expression, i.e., the values for “A” and “C”, is measured by summing the values measured daily in aliquots of the cultured cells.
2. G factors. G factors differ from the X factor only with respect to the time period evaluated. For calculating a G factor, the amount of protein expressed is measured from days 4-7 or days 4-14, where day 0 is the day on which the foreign DNA is added to the cells. The subscripts denote which of the two time periods provided the basis for measurement. […] As for the X factor, [formula]
3. K factor. The K factor is the ratio of the rate constants for the change in the foreign DNA expression in control transfected cells and in cells exposed to a chemical compound of the subject invention. K is determined according to the following equation: [formula]
wherein “k(DNA)” is the first order rate constant for the change in concentration of the protein expressed from the transgenic DNA, which is expressing protein as a function of time, i.e., [formula]
Values for k(DNA) are derived by using a computer program that plots the log of the foreign protein concentration against time, using the results of transgenic protein measurements that begin about 24 hours after the foreign DNA has been added to the cell. […] However, the program calculates a “best fit” line for each data set, and determines the slope of that portion of the resulting line that corresponds to the period during which protein production is changing. […] Thus, the slope is calculated during this period of decline to provide values for k(DNA) and K that can be compared for the purpose of comparing the efficacy of different chemical compounds.
SW480 P3 (ATCC #CCL228) human colon carcinoma cells (typically, 1×10^6 cells) were plated in the wells of a 6-well tissue culture plate. The number of wells plated reflected the number of days post-transfection during which the experiment would proceed. Each well contained 1 ml of complete media from a 30 ml stock solution containing: 26.4 ml RPMI tissue culture medium, 4 mM L-glutamine, 3.0 ml fetal bovine serum, and 10 μg/ml gentamicin. Cells were cultured at 37° C. in a CO2 incubator with 10% CO2 for 24 hours after being plated, during which time the cells adhered to the plates.
After the 24 hour pre-incubation step, the transfection step was carried out by removing the RPMI and adding 900 μL OPTI-MEM® (Gibco) medium containing 2 μg of VR1412 DNA (Vical, Inc., San Diego, Calif.), which expresses the bacterial β-galactosidase gene under the control of a cytomegalovirus promoter, and 8 μg of a mixture of cationic lipid (1,2-dimyristyloxyproply-3-dimethyl-hydroxyethyl ammonium bromide (e.g., “DMRIE/DOPE”) mixed in equimolar proportions with dioleoylphosphatidylethanolamine) to yield a lipid:DNA molar ratio of 0.99:1. It should be noted that typical transient transfection protocols employ 10 μg DNA per 10^6 cells, but the protocol described here uses less DNA in order to reduce toxicity to the cells. The plates were then incubated for 4 hours at 37° C.
After the 4 hour incubation step, 100 μl of heat deactivated fetal bovine serum (to stop transfection), plus 12.0 μl of 50 mg/ml gentamicin were added to each well.

Q: With chondroitin sulfate as the substance, how does the “cell adhesion to microcarrier” value (SW480 cells) read?
A: enabled the anchorage-dependent cells to adhere well to the microcarrier

Q: What about the “effect on transient expression” value [1] of the same substance?
A: capable of prolonging transient expression

Q: And the “effect on transient expression when present before or during the transfection step” value ([1]; polyanionic carbohydrates, liposomal transfection)?
A: allowed the transfection to proceed unimpeded; also recorded: enhanced transient expression
